Patent US11780840B2 (Incyte Corporation, priority 2020, dated 2023)

Tests used:
[1] = target: T1, pseudo-kinase domain (JH2, amino-acids 536-812 with 3 surface mutations W659A, W777A, F794H) of human Wild Type JAK2 (Homo sapiens, UniProt O60674, F794H/W659A/W777A); assay: JAK2 LanthaScreen JH2-WT Binding Assay; details: JAK2 JH2-WT (0.145 nM), 50 nM Fluorescent JAK2-JH2 Tracer, 1 hour at 25° C.; read-out: JH2 BIND WT
T1 construct: pseudo-kinase domain (JH2, amino-acids 536-812 with 3 surface mutations W659A, W777A, F794H); His (C); Avi (biotinylated) (C); purchased BPS Bioscience 79463; host or cells: baculovirus expression system
How it was run: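 TR-FRET tracer displacement: 0.145 nM biotinylated JH2 protein, 50 nM fluorescent tracer, 0.25 nM streptavidin-Tb, compound dilution series; 50 mM Tris pH 7.5, 10 mM MgCl2, 5 mM DTT; 1 h, 25° C. Non-specific binding with 2 mM ATP. IC50 by 4-parameter fit.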

[2] = target: T2, catalytic domain (JH1, amino acids 826-1132) of human JAK2 (Homo sapiens, UniProt O60674); assay: JAK2 LanthaScreen JH1 Binding Assay; details: JAK2 JH1 (1.5 nM), 50 nM fluorescent JAK2-JH1 tracer, 2 hours at 25° C.; read-out: JH1 BIND
T2 construct: catalytic domain (JH1, amino acids 826-1132) of human JAK2; FLAG (N); purchased Carna Biosciences 08-445-20N; host or cells: baculovirus expression system
How it was run: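 TR-FRET tracer-displacement format: compound IC50 from four-parameter curves after 2 h at 25° C. Reaction held 1.5 nM biotinylated, FLAG-tagged JH1 (aa 826-1132), 50 nM tracer, 0.5 nM Streptavidin-Tb, pH 7.5 Tris buffer; 2 mM ATP set nonspecific background.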

[3] = target: T3, pseudo-kinase domain (JH2, amino-acids 536-812 with 3 surface mutations W659A, W777A, F794H) of human V617F mutant JAK2 (Homo sapiens, UniProt O60674, F794H/V617F/W659A/W777A); assay: JAK2 LanthaScreen JH2-V617F Binding Assay; details: JAK2 JH2-V617F (0.26 nM), 50 nM Fluorescent JAK2-JH2 Tracer, 1 hour at 25° C.; read-out: JH2 BIND V617F
T3 construct: pseudo-kinase domain (JH2, amino-acids 536-812 with 3 surface mutations W659A, W777A, F794H); His (C); Avi (biotinylated) (C); purchased BPS Bioscience 79498; host or cells: baculovirus expression system
How it was run: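 This is a TR-FRET tracer-displacement format with a 1 h, 25 °C incubation. It combined 0.26 nM baculovirus-expressed biotinylated JH2-V617F, 50 nM fluorescent JAK2-JH2 tracer and 0.25 nM streptavidin-Tb cryptate in 50 mM Tris pH 7.5, 10 mM MgCl2, 5 mM DTT. Background came from 2 mM ATP, and IC50 values were from four-parameter dose-response fits.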

T3 sequence (O60674 536-812 V617F/W659A/W777A/F794H): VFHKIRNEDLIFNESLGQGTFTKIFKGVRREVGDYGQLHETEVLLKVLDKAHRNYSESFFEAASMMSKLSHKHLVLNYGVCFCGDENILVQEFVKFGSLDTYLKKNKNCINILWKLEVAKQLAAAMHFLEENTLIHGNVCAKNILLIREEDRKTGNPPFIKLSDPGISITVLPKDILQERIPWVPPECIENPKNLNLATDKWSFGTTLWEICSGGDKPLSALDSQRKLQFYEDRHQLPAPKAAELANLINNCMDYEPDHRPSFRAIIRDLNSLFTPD
T2 sequence (O60674 826-1132): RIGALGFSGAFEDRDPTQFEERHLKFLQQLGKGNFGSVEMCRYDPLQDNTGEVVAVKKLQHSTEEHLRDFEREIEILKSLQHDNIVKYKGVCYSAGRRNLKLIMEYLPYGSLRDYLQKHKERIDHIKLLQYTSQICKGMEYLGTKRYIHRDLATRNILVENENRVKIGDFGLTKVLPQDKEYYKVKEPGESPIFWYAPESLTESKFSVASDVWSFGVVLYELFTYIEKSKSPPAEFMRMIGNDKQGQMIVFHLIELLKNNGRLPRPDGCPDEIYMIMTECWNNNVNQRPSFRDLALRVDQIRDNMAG
T1 sequence (O60674 536-812 W659A/W777A/F794H): as the sequence (O60674 536-812 V617F/W659A/W777A/F794H) above, with F82V counted along it

Structure (SMILES) | IC50 [1] | IC50 [2] | IC50 [3]
Cn1c(=O)n(C)c2c3c(-c4ccccc4)c(CCO)[nH]c3ncc21 [Example 42, 7-(2-Hydroxyethyl)-1,3-dimethyl-8-phenyl-3,6-dihydroimidazo[4,5-d]pyrrolo[2,3-b]pyridin-2(1H)-one] | > 1000 nM | > 1000 nM | > 1000 nM
CC(C)C(=O)c1[nH]c2ncc3c(c2c1-c1ccccc1)n(C)c(=O)n3C [Example 43, 7-Isobutyryl-1,3-dimethyl-8-phenyl-3,6-dihydroimidazo [4,5-d]pyrrolo[2,3-b]pyridin-2(1H)-one] | > 1000 nM | > 1000 nM | > 1000 nM
CC(C)n1c(=O)n(C)c2cnc3[nH]c(-c4cnn(CS(C)(=O)=O)c4)c(-c4ccccc4)c3c21 [Example 44] | ≤ 10 nM | 100 to 500 nM | ≤ 10 nM
Cn1c(=O)n(C2CC3CCC2C3)c2c3c(-c4ccccc4)c(-c4cnn(CS(C)(=O)=O)c4)[nH]c3ncc21 (stereo not drawn) [Example 45, 1-(Bicyclo[2.2.1]heptan-2-yl)-3-methyl-7-(1-((methylsulfonyl)methyl)-1H-pyrazol-4-yl)-8-phenyl-3,6-dihydroimidazo[4,5-d]pyrrolo[2,3-b]pyridin-2(1H)-one] | ≤ 10 nM | 10 to 100 nM | 10 to 100 nM
Cn1c(=O)n(C2CCOCC2)c2c3c(-c4ccccc4)c(-c4ccc(CN5CCC(S(C)(=O)=O)CC5)cc4)[nH]c3ncc21 [Example 46, 3-Methyl-7-(4-((4-(methylsulfonyl)piperidin-1-yl)methyl)phenyl)-8-phenyl-1-(tetrahydro-2H-pyran-4-yl)-3,6-dihydroimidazo[4,5-d]pyrrolo[2,3-b] pyridin-2(1H)-one] | ≤ 10 nM | 500 to 1000 nM | ≤ 10 nM
Cn1ncc2cc(-c3c(-c4cnn(CC(C)(C)O)c4)[nH]c4ncc5c(c34)n(C3CCCC3)c(=O)n5C)ccc21 [Example 47, 1-Cyclopentyl-7-(1-(2-hydroxy-2-methylpropyl)-1H-pyrazol-4-yl)-3-methyl-8-(1-methyl-1H-indazol-5-yl)-3,6-dihydroimidazo[4,5-d]pyrrolo[2,3-b]pyridin-2(1H)-one] | ≤ 10 nM | 100 to 500 nM | ≤ 10 nM
Cn1cc(-c2[nH]c3ncc4c(c3c2-c2ccc3c(cnn3C)c2)n(C2CCOCC2)c(=O)n4C)cn1 [Example 48, 3-Methyl-8-(1-methyl-1H-indazol-5-yl)-7-(1-methyl-1H-pyrazol-4-yl)-1-(tetrahydro-2H-pyran-4-yl)-3,6-dihydroimidazo[4,5-d]pyrrolo[2,3-b]pyridin-2(1H)-one] | ≤ 10 nM | > 1000 nM | ≤ 10 nM
Cn1c(=O)n(C2CCOCC2)c2c3c(-c4ccc(C5(C#N)CC5)cc4)c(-c4ccc(CN5CCC(S(C)(=O)=O)CC5)cc4)[nH]c3ncc21 [Example 49, 1-(4-(3-Methyl-7-(4-((4-(methylsulfonyl)piperidin-1-yl)methyl)phenyl)-2-oxo-1-(tetrahydro-2H-pyran-4-yl)-1,2,3,6-tetrahydroimidazo [4,5-d]pyrrolo[2,3-b]pyridin-8-yl)phenyl)cyclo-propane-1-carbonitrile] | ≤ 10 nM | 100 to 500 nM | ≤ 10 nM
CC(C)n1c(=O)n(C)c2cnc3[nH]c(-c4cnn(CC(C)(C)O)c4)c(-c4ccc(C5(C#N)CC5)cc4)c3c21 [Example 50, 1-(4-(7-(1-(2-Hydroxy-2-methylpropyl)-1H-pyrazol-4-yl)-1-isopropyl-3-methyl-2-oxo-1,2,3,6-tetrahydroimidazo [4,5-d]pyrrolo[2,3-b]pyridin-8-yl)phenyl) cyclopropane-1-carbonitrile] | ≤ 10 nM | 500 to 1000 nM | ≤ 10 nM
Cn1c(=O)n(C2CCOCC2)c2c3c(-c4ccc(C5(N6CCOCC6)CC5)cc4)c(-c4cnn(CC(C)(C)O)c4)[nH]c3ncc21 [Example 51, 7-(1-(2-Hydroxy-2-methylpropyl)-1H-pyrazol-4-yl)-3-methyl-8-(4-(1-morpholinocyclo-propyl)phenyl)-1-(tetrahydro-2H-pyran-4-yl)-3,6-dihydroimidazo[4,5-d]pyrrolo[2,3-b]pyridin-2(1H)-one] | ≤ 10 nM | > 1000 nM | ≤ 10 nM
Cn1ncc2cc(-c3c(-c4ccc(CN5CCC(S(C)(=O)=O)CC5)cc4)[nH]c4ncc5c(c34)n(C3CCCC3)c(=O)n5C)ccc21 [Example 52, 1-Cyclopentyl-3-methyl-8-(1-methyl-1H-indazol-5-yl)-7-(4-((4-(methylsulfonyl)piperidin-1-yl)methyl)phenyl)-3,6-dihydroimidazo[4,5-d]pyrrolo[2,3-b]pyridin-2(1H)-one] | ≤ 10 nM | 100 to 500 nM | ≤ 10 nM
Cn1ncc2cc(-c3c(-c4cnn(Cc5ccncc5)c4)[nH]c4ncc5c(c34)n(C3CCCC3)c(=O)n5C)ccc21 [Example 53, 1-Cyclopentyl-3-methyl-8-(1-methyl-1H-indazol-5-yl)-7-(1-(pyridin-4-ylmethyl)-1H-pyrazol-4-yl)-3,6-dihydroimidazo[4,5-d]pyrrolo[2,3-b]pyridin-2(1H)-one] | ≤ 10 nM | 100 to 500 nM | ≤ 10 nM
COCCn1cc(-c2[nH]c3ncc4c(c3c2-c2ccc3c(cnn3C)c2)n(C2CCCC2)c(=O)n4C)cn1 [Example 54, 1-Cyclopentyl-7-(1-(2-methoxyethyl)-1H-pyrazol-4-yl)-3-methyl-8-(1-methyl-1H-indazol-5-yl)-3,6-dihydroimidazo[4,5-d]pyrrolo[2,3-b] pyridin-2(1H)-one] | ≤ 10 nM | 100 to 500 nM | ≤ 10 nM
CC(C)n1c(=O)n(C)c2cnc3[nH]c(-c4cnn(CC(C)(C)O)c4)c(-c4ccc5c(cnn5C)c4)c3c21 [Example 55, 7-(1-(2-Hydroxy-2-methylpropyl)-1H-pyrazol-4-yl)-1-isopropyl-3-methyl-8-(1-methyl-1H-indazol-5-yl)-3,6-dihydroimidazo[4,5-d]pyrrolo[2,3-b] pyridin-2(1H)-one] | ≤ 10 nM | > 1000 nM | ≤ 10 nM
Cn1ncc2cc(-c3c(-c4cnn(CC(F)F)c4)[nH]c4ncc5c(c34)n(C3CCCC3)c(=O)n5C)ccc21 [Example 56, 1-Cyclopentyl-7-(1-(2,2-difluoroethyl)-1H-pyrazol-4-yl)-3-methyl-8-(1-methyl-1H-indazol-5-yl)-3,6-dihydroimidazo[4,5-d]pyrrolo[2,3-b]pyridin-2(1H)-one] | ≤ 10 nM | 100 to 500 nM | ≤ 10 nM
Cn1c(=O)n(C2CCCC2)c2c3c(-c4cc5cnccc5s4)c(-c4cnn(CC(F)F)c4)[nH]c3ncc21 [Example 57, 1-Cyclopentyl-7-(1-(2,2-difluoroethyl)-1H-pyrazol-4-yl)-3-methyl-8-(thieno[3,2-c]pyridin-2-yl)-3,6-dihydroimidazo[4,5-d]pyrrolo[2,3-b]pyridin-2(1H)-one] | ≤ 10 nM | 100 to 500 nM | ≤ 10 nM
Cn1c(=O)n([C@H]2CCCOC2)c2c3c(-c4ccccc4)c(-c4ccc(CN5CCC(S(C)(=O)=O)CC5)cc4)[nH]c3ncc21 [Example 58, (S)-3-Methyl-7-(4-((4-(methylsulfonyl)piperidin-1-yl)methyl)phenyl)-8-phenyl-1-(tetrahydro-2H-pyran-3-yl)-3,6-dihydroimidazo[4,5-d]pyrrolo[2,3-b]pyridin-2(1H)-one] | ≤ 10 nM | 100 to 500 nM | 10 to 100 nM
